Data set [1] is described as follows: FT4 powder rheometer powder characterization (8-parameter model). The format is physicochemical. Set-up: MPS-15: unit not given here. Conditions: for sBFE (Specific Basic Flow Energy): FT4, Group 1, 25 mm_1C_Split_Rep+VFR_R01; for sBFE (Specific Basic Flow Energy) / SI (Stability Index) / MPS-15 (major Principal Stress @ 15 kPa) / FF-15 (Flow function @ 15 kPa) / CBD-15 (Consolidated Bulk Density @ 15 kPa) / CPS (Compressibility) / WFA (Wall Friction Angle): reference powders; for SI (Stability Index) / SI / sBFE: FT4, Group 1; for SI (Stability Index) / FF-15 (Flow function @ 15 kPa): dimensionless; for MPS-15 (major Principal Stress @ 15 kPa): FT4, Group 2, 25 mm_Shear_15 kPa; for FF-15 (Flow function @ 15 kPa) / CBD-15 (Consolidated Bulk Density @ 15 kPa): FT4, Group 2, shear cell; for CPS (Compressibility): FT4, Group 3, 25 mm_Compressibility_1-15 kPa; for WFA (Wall Friction Angle): FT4, Group 4, 25 mm_Wall Friction_30 kPa; for SI / sBFE / CBD-15 / FF-15 / MPS-15 / CPS / WFA: HDM201-BBA batches; for CBD-15 / FF-15 / MPS-15: FT4, Group 2; for CPS: FT4, Group 3; for WFA: FT4, Group 4. As to the method:
A standard FT4 powder rheometer offers at least 6 powder characterization methods (per measurement cylinder diameter). Those selected for analysis are
25 mm_1C_Split_Rep+VFR_R01;
25 mm_Compressibility_1-15 kPa;
25 mm_Wall Friction_30 kPa.
Each characterization method produces several kind of response parameters (default or manually selectable). A set of complete powder characterizations (at least 22 response parameters per row) were measured for more than 350 different powders and more than 60 different compounds using a standard FT4 powder rheometer and compiled in a database. The various parameters were correlated to the respective filling behavior in order to determine a set of parameters and parameter ranges which is capable of distinguishing and predicting filling behavior of powders.
sBFE: Specific Basic Flow Energy (mJ/g): obtained from BFE (obtained from standard FT4 test platform) divided by the split mass of the sample.
SI: Stability Index, standard variable, dimensionless.
SE: Specific Energy (mJ/g), standard variable
MPS @ 15 kPa: major Principal Stress, standard variable
FF @ 15 kPa: Flow function (dimensionless), from shear cell, standard variable
CBD @ 15 kPa: Consolidated Bulk Density (g/mL), standard variable (from shear cell)
CPS: Compressibility (%), standard variable
WFA: Wall Friction Angle (degree°), standard variable.

A short description of data set [2]: Particle size distribution by laser light diffraction (LLD). The format is physicochemical. Conditions: laser light diffraction, pin-milled HDM201-BBA batches. The text has this: Values are given in micrometer, measurements done by laser light diffraction (LLD).

From patent US20220175682A1, “Siremadlin Succinate” (Novartis AG, priority 2019, published 2022) come the findings set out here.

For the compound `CN(C)C(=O)c1cc2cnc(Nc3ccc(N4CCNCC4)cn3)nc2n1C1CCCC1` [1. LEE011, reference compound], in data set [1], the “sBFE (Specific Basic Flow Energy)” value worked out at 38 mJ/g, the “SI (Stability Index)” value came out at 0.9, the MPS-15 (major Principal Stress @ 15 kPa) was found to be 42 kPa and the “FF-15 (Flow function @ 15 kPa)” value is 5.8. Further, in data set [1], the “CBD-15 (Consolidated Bulk Density @ 15 kPa)” value is given as 0.6 g/mL, the “CPS (Compressibility)” value came out at 26% and the “WFA (Wall Friction Angle)” value is given as 40 °.
On to `OC[C@H]1O[C@@H](O[C@H]2[C@H](O)[C@@H](O)[C@@H](O)O[C@@H]2CO)[C@H](O)[C@@H](O)[C@H]1O` [4. Lactose 125M, reference compound], for which, in data set [1], the “sBFE (Specific Basic Flow Energy)” value worked out at 16 mJ/g, the “CPS (Compressibility)” value is reported as 13% and the “WFA (Wall Friction Angle)” value is 27 °.
For `CC1(N)CCN(c2cccnc2NC(=O)c2nc(-c3ncccc3C(F)(F)F)cnc2N)CC1` [5. LXS196, reference compound], in data set [1], the “sBFE (Specific Basic Flow Energy)” value turned out to be 26 mJ/g, the “SI (Stability Index)” value is 1.1, the MPS-15 (major Principal Stress @ 15 kPa) worked out at 27 kPa and the “FF-15 (Flow function @ 15 kPa)” value is given as 15. Moreover, in data set [1], the “CBD-15 (Consolidated Bulk Density @ 15 kPa)” value is 0.7 g/mL, the “CPS (Compressibility)” value was 11% and the “WFA (Wall Friction Angle)” value is 29 °.
`CCC(=O)N1CC[C@H](Nc2ncnc3c2CN(c2cnc(OC)c(C(F)(F)F)c2)CC3)C1` [6. CDZ173, reference compound]: in data set [1], the “sBFE (Specific Basic Flow Energy)” value was 29 mJ/g, the “SI (Stability Index)” value was determined as 1.5, the MPS-15 (major Principal Stress @ 15 kPa) came out at 50 kPa and the “FF-15 (Flow function @ 15 kPa)” value is reported as 1.4. Besides, in data set [1], the “CBD-15 (Consolidated Bulk Density @ 15 kPa)” value is listed as 0.26 g/mL, the “CPS (Compressibility)” value was found to be 43% and the “WFA (Wall Friction Angle)” value was determined as 50 °.
In the case of `CCC(=O)N1CC[C@H](Nc2ncnc3c2CN(c2cnc(OC)c(C(F)(F)F)c2)CC3)C1` [7. CDZ173, reference compound], in data set [1], the “sBFE (Specific Basic Flow Energy)” value is listed as 82 mJ/g, the “SI (Stability Index)” value stood at 1.1, the MPS-15 (major Principal Stress @ 15 kPa) was found to be 9.6 kPa and the “FF-15 (Flow function @ 15 kPa)” value was found to be 5. Moreover, in data set [1], the “CBD-15 (Consolidated Bulk Density @ 15 kPa)” value was 0.2 g/mL, the “CPS (Compressibility)” value is recorded as 56% and the “WFA (Wall Friction Angle)” value was 37 °.
For `COc1ncc(-c2nc3c(n2C(C)C)[C@H](c2ccc(Cl)cc2)N(c2cc(Cl)cn(C)c2=O)C3=O)c(OC)n1.O=C(O)CCC(=O)O` [Batch A1], in data set [1] (listed as A1), the SI is 1.07, the sBFE was found to be 6 mJ/g, the CBD-15 came to 0.53 g/mL and the FF-15 came to 2.5. Further, in data set [1] (listed as A1), the MPS-15 was 32, the CPS was 43% and the WFA came to 35 °. In data set [2] (listed as A1), the X10 stood at 1 micrometer, the X50 was 5 micrometer and the X90 is listed as 14 micrometer.
As to `COc1ncc(-c2nc3c(n2C(C)C)[C@H](c2ccc(Cl)cc2)N(c2cc(Cl)cn(C)c2=O)C3=O)c(OC)n1.O=C(O)CCC(=O)O` [Batch A2], in data set [1] (listed as A2), the SI worked out at 1.11, the sBFE is given as 9 mJ/g, the CBD-15 was 0.68 g/mL and the FF-15 is 5.5. In data set [1] (listed as A2), this compound showed an MPS-15 of 29, a CPS of 32% and a WFA of 34 °. Also, in data set [2] (listed as A2), the X10 is reported as 4 micrometer, the X50 is given as 28 micrometer and the X90 is on record as 60 micrometer.
Consider `COc1ncc(-c2nc3c(n2C(C)C)[C@H](c2ccc(Cl)cc2)N(c2cc(Cl)cn(C)c2=O)C3=O)c(OC)n1.O=C(O)CCC(=O)O` [Batch A3], for which, in data set [1] (listed as A3), the SI was found to be 1.12, the sBFE stood at 20 mJ/g, the CBD-15 is reported as 0.69 g/mL and the FF-15 was 9.4. In data set [1] (listed as A3), this compound showed an MPS-15 of 29, a CPS of 15% and a WFA of 34 °. In data set [2] (listed as A3), this compound returned an X10 of 9 micrometer, an X50 of 45 micrometer and an X90 of 95 micrometer.
In data set [1] (listed as B1), `COc1ncc(-c2nc3c(n2C(C)C)[C@H](c2ccc(Cl)cc2)N(c2cc(Cl)cn(C)c2=O)C3=O)c(OC)n1.O=C(O)CCC(=O)O` [Batch B1] had an SI of 1.14, a sBFE of 6 mJ/g, a CBD-15 of 0.64 g/mL and an FF-15 of 3.8. Also, in data set [1] (listed as B1), the MPS-15 was determined as 29, the CPS turned out to be 31% and the WFA was determined as 34 °. Further, in data set [2] (listed as B1), the X10 was determined as 3 micrometer, the X50 is 16 micrometer and the X90 is 50 micrometer.
For `COc1ncc(-c2nc3c(n2C(C)C)[C@H](c2ccc(Cl)cc2)N(c2cc(Cl)cn(C)c2=O)C3=O)c(OC)n1.O=C(O)CCC(=O)O` [Batch B2], in data set [1] (listed as B2), the SI turned out to be 1.01, the sBFE was 8 mJ/g, the CBD-15 is given as 0.65 g/mL and the FF-15 amounted to 3.8. In data set [1] (listed as B2), this compound yielded an MPS-15 of 28, a CPS of 38% and a WFA of 35 °. Moreover, in data set [2] (listed as B2), the X10 is recorded as 4 micrometer, the X50 is recorded as 21 micrometer and the X90 worked out at 71 micrometer.
Regarding `COc1ncc(-c2nc3c(n2C(C)C)[C@H](c2ccc(Cl)cc2)N(c2cc(Cl)cn(C)c2=O)C3=O)c(OC)n1.O=C(O)CCC(=O)O` [Batch B3], in data set [1] (listed as B3), the SI was 1.11, the sBFE was found to be 9 mJ/g, the CBD-15 turned out to be 0.70 g/mL and the FF-15 stood at 5.3. Further, in data set [1] (listed as B3), the MPS-15 is 29, the CPS came to 26% and the WFA is given as 35 °. In data set [2] (listed as B3), this compound had an X10 of 5 micrometer, an X50 of 26 micrometer and an X90 of 87 micrometer.
In data set [1] (listed as C1), `COc1ncc(-c2nc3c(n2C(C)C)[C@H](c2ccc(Cl)cc2)N(c2cc(Cl)cn(C)c2=O)C3=O)c(OC)n1.O=C(O)CCC(=O)O` [Batch C1] displayed an SI of 1.15, a sBFE of 33 mJ/g, a CBD-15 of 0.68 g/mL and an FF-15 of 9.0. In data set [1] (listed as C1), the MPS-15 is 31, the CPS stood at 14% and the WFA turned out to be 34 °. In addition, in data set [2] (listed as C1), the X10 is on record as 21 micrometer, the X50 was 69 micrometer and the X90 is given as 163 micrometer.
In data set [1] (listed as C2), `COc1ncc(-c2nc3c(n2C(C)C)[C@H](c2ccc(Cl)cc2)N(c2cc(Cl)cn(C)c2=O)C3=O)c(OC)n1.O=C(O)CCC(=O)O` [Batch C2] yielded an SI of 1.01, a sBFE of 12 mJ/g, a CBD-15 of 0.70 g/mL and an FF-15 of 6.4. Also, in data set [1] (listed as C2), the MPS-15 was found to be 29, the CPS is recorded as 25% and the WFA stood at 35 °. In data set [2] (listed as C2), this compound came in with an X10 of 6 micrometer, an X50 of 35 micrometer and an X90 of 83 micrometer.
